# Measured values: patent US7517657B2, “Peptides for detecting anti-double stranded DNA antibody and uses thereof” (Albert Einstein College of Medicine of Yeshiva University, priority 1995, dated 2009)
# Entries after “also recorded” stand apart in the source; their conditions may differ. Square brackets hold non-standard residues; d marks the D form. Ends that are not written are not given here.
# System: R4A deposition in glomeruli
# Test: Assay of anti-dsDNA antibody (R4A) glomerular deposition in SCID mice
# Format: in vivo
# Conditions: 75 μg R4A and 150 μg peptide i.p., IgG immunostaining, FIG. 5
# Procedure: FIG. 5 sets forth kidney sections exemplifying peptide inhibition of R4A deposition in glomeruli. R4A (75 μg) and peptide (150 μg) were injected i.p. into SCID mice. Mice were killed 16 hours later, and the kidneys immunostained for IgG deposition. […] FIG. 5B sets forth a representative section from a mouse injected with R4A, and the R4A- specific D peptide DWEYS (SEQ ID NO:2).
# Glomerular deposition of the nephritogenic R4A antibody was examined by injecting purified antibody into SCID mice. R4A was obtained from cell culture supernatants or from ascites of mice injected with the cell line. Antibody was purified on a protein G column (Gamma Bind, Pharmacia). SCID mice were obtained from the breeding colony maintained at the Albert Einstein College of Medicine. Six- to eight-week old female mice were used in the experiments. Anti-dsDNA antibodies and IgG2b levels were undetectable in these mice before injection. Individual mice were simultaneously injected i.p. with 75 μg of purified R4A and 150 μg of the appropriate peptide. The mice were killed 16 hours after the injection of antibody.
# One kidney from each animal was fixed in 10% formalin and embedded in paraffin. […]
row,Substance,Inhibition of R4A deposition in glomeruli / kidney
1,DWEYS [D peptide DWEYS] (Ac-[dD][dW][dE][dY][dS]-NH2; SMILES CC(=O)N[C@H](CC(=O)O)C(=O)N[C@H](Cc1c[nH]c2ccccc12)C(=O)N[C@H](CCC(=O)O)C(=O)N[C@H](Cc1ccc(O)cc1)C(=O)N[C@H](CO)C(N)=O) [R4A-specific peptide DWEYS made from D amino acids],markedly inhibited the deposition of R4A in the kidney; also recorded: only the D peptide conferred renal protection in vivo
2,"DWEYS [L peptide DWEYS, R4A-specific L peptide DWEYS]",More anti-dsDNA antibody is present in glomeruli; also recorded: did not

# Molecular target: phage clone φ3-3, no insert (UniProt P03661)
# Test: phage ELISA, antibody coated, no-insert control phage added, anti-M13 detection
# Conditions: not given
# UniProt P03661, sequence (P03661 19-424 limits assumed): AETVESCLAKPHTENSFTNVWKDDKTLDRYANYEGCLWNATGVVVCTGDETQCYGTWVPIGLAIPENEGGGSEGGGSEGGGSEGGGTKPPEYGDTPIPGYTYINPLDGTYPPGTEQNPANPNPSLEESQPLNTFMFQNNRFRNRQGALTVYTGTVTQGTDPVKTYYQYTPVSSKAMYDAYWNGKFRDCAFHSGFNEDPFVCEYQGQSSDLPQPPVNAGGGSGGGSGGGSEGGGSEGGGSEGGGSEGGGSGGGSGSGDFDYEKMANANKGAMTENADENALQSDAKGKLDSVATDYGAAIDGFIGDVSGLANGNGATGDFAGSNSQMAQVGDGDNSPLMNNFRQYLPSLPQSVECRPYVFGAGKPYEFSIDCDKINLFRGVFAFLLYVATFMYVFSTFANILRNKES
row,Substance,Binding O.D. 405 nm [O.D. 405 nm]
1,monoclonal antibody R4A (mouse anti-dsDNA antibody),0.1

# System: 52b3 anti-dsDNA monoclonal antibody
# Test: ELISA binding of monoclonal antibody 52b3 to phage clones
# Set-up: species or system mouse
# Conditions: 52b3 selected phage, Table 3
# Procedure: (§1) FIG. 1 is comprised of FIGS. 1A, 1B and 1C, and depicts the binding by Enzyme Linked ImmunoSorbent Assay of monoclonal antibodies R4A (FIG. 1A), 95 (FIG. 1B) and 52b3 (FIG. 1C) to phage clones. In each figure, the shaded columns are R4A-selected phage and unshaded columns are 52b3-selected phage.
# (§2) Binding of antibodies to phage was determined by Enzyme-Linked ImmunoSorbent Assay (ELISA). Microtiter plates (Becton Dickinson, Lincoln Park, N.J.) were coated with 50 μl of antibody (1 μg/ml unless otherwise specified) in TBS (Tris/10 mM HCl pH 7.5, 150 mM NaCl) overnight at 4° C. Plates were washed 3 times with TBS/0.05% TWEEN® 20. Approximately 2.5×10^10 purified phage in 50 μl TBS were added to each well, incubated for 2 hours at 37° C., washed, and then were blocked with 150 μl of TBS/2% BSA for 1 hour at 37° C. Plates were incubated with 50 μl of a 1:4000 dilution in TBS of biotinylated sheep antibody to M13 phage (5′->3′, Inc., Boulder, Colo.) for 1 hour at 37° C. Plates were washed again and incubated with a 1:4000 dilution of […] streptavidin (Southern Biotech. Assoc. Inc., Birmingham, Ala.) and developed with Sigma-104 substrate tablets (Sigma Chemical Co.). Optical density was read at 405 nm.
row,Substance,Binding O.D. 405 nm
1,C G V D G R W P R W (CGVDGRWPRW; displayed on phage; peptide (1)..(10) randomly-selected sequence obtained by biopanning a decapeptide library with 52b3) [φB23],1.5
2,D G E W P R E G W S (DGEWPREGWS; displayed on phage; peptide (1)..(10) randomly-selected sequence obtained by biopanning a decapeptide library with 52b3) [φB56],1.6
3,E D L E G E W P M R (EDLEGEWPMR; displayed on phage; peptide (1)..(10) randomly-selected sequence obtained by biopanning a decapeptide library with 52b3) [φB22],1.5
4,L L D D G F W P R V (LLDDGFWPRV; displayed on phage; peptide (1)..(10) randomly-selected sequence obtained by biopanning a decapeptide library with 52b3) [φB25],1.5
5,"R H E D G D W P R V (RHEDGDWPRV; not fully specified (N-terminus, C-terminus)) [φB11]",1.4
6,S C Y Q S Y P G E C (SCYQSYPGEC; displayed on phage; peptide (1)..(10) randomly-selected sequence obtained by biopanning a decapeptide library with 52b3) [φB52],1.8
7,S L D E L D W D S M (SLDELDWDSM; displayed on phage; peptide (1)..(10) randomly-selected sequence obtained by biopanning a decapeptide library with 52b3) [φB1],1.4
8,S L I S D E W P R W (SLISDEWPRW; displayed on phage; peptide (1)..(10) randomly-selected sequence obtained by biopanning a decapeptide library with 52b3) [φB24],1.3
9,T W C P V W I W D C (TWCPVWIWDC; displayed on phage; peptide (1)..(10) randomly-selected sequence obtained by biopanning a decapeptide library with 52b3) [φB16],1.0
10,V L I C W D G C E T (VLICWDGCET; displayed on phage; peptide (1)..(10) randomly-selected sequence obtained by biopanning a decapeptide library with 52b3) [φB17],1.6
11,W D C Y V C R L E L (WDCYVCRLEL; displayed on phage; peptide (1)..(10) randomly-selected sequence obtained by biopanning a decapeptide library with 52b3) [φB21],1.2

# System: 52b3 binding to dsDNA
# Test: Peptide inhibition of 52b3 binding to dsDNA by ELISA
# Set-up: species or system mouse
# Conditions: fluid phase peptide, FIG. 3
# Procedure: To determine whether peptide and dsDNA bound within the same antigen binding site of each antibody, inhibition assays were performed with specific peptides. […] These were used in fluid phase to inhibit the binding of antibody to dsDNA. Two peptides, Asp-Trp-Glu-Tyr-Ser-Val-Trp-Leu-Ser-Asn (SEQ ID NO:1) and Asp-Trp-Glu-Tyr-Ser (SEQ ID NO:2), were chosen as the R4A specific epitope; the 52b3 specific peptide was Arg-His-Glu-Asp-Gly-Asp-Trp-Pro-Arg-Val (SEQ ID NO:7).
row,Substance,Inhibition of 52b3 binding to dsDNA
1,RHEDGDWPRV [52b3 specific peptide],inhibited dsDNA binding by the appropriate antibody only

# System: R4A binding to dsDNA
# Test: Peptide inhibition of R4A binding to dsDNA by ELISA
# Set-up: species or system mouse
# Conditions: fluid phase inhibitor, FIG. 3, FIG. 4
# Procedure: FIG. 3 depicts peptide inhibition of R4A (1 μg/ml) binding to calf thymus double stranded DNA by Enzyme Linked ImmunoSorbent Assay.
# FIG. 4 sets forth a graph representing DWEYS (L and D peptides) (SEQ ID NO:2) inhibition of R4A binding to dsDNA. IMMULON® II plates were coated overnight with 100 μg/ml salmon sperm dsDNA. R4A at a final concentration of 5 μg/ml was incubated at varying concentrations of L or D DWEYS (SEQ ID NO:2) and transferred to the plate precoated with dsDNA. After a 2-hr incubation at 37° C., the plates were washed, and alkaline phosphotase-linked goat anti-mouse IgG2b antibody was added for 1 hour at 37° C. OD after addition of substrate was monitored at 405 nm.
row,Substance,Inhibition of R4A binding to dsDNA
1,DWEYS [D peptide DWEYS] (Ac-[dD][dW][dE][dY][dS]-NH2; SMILES CC(=O)N[C@H](CC(=O)O)C(=O)N[C@H](Cc1c[nH]c2ccccc12)C(=O)N[C@H](CCC(=O)O)C(=O)N[C@H](Cc1ccc(O)cc1)C(=O)N[C@H](CO)C(N)=O) [R4A-specific peptide DWEYS made from D amino acids],inhibited the binding of R4A to dsDNA
2,"DWEYS [L peptide DWEYS, R4A-specific L peptide DWEYS]",showed greater maximal inhibition; also recorded: inhibited the binding of R4A to dsDNA; also recorded: inhibited dsDNA better than the D peptide in vitro
3,DWEYSVWLSN [R4A specific peptide],inhibited dsDNA binding by the appropriate antibody only

# System: R4A anti-dsDNA monoclonal antibody
# Test: ELISA binding of monoclonal antibody R4A to phage clones
# Set-up: species or system mouse
# Conditions: R4A selected phage, Table 2
# Procedure: as §1, §2
row,Substance,Binding O.D. 405 nm
1,D W D Y G A L M W A (DWDYGALMWA; displayed on phage; peptide (1)..(10) randomly-selected sequence obtained by biopanning a decapeptide library with R4A) [φ7-3],1.1
2,"D W E Y S V W L S N (DWEYSVWLSN; not fully specified (N-terminus, C-terminus)) [φ1-3]",1.3
3,F S D C Y H S G C P [φ1-1],1.5
4,L Y F E D Y R C E L (LYFEDYRCEL; displayed on phage; peptide (1)..(10) randomly-selected sequence obtained by biopanning a decapeptide library with R4A) [φ7-6],1.2
5,S T E H S E A D L W (STEHSEADLW; displayed on phage; peptide (1)..(10) randomly-selected sequence obtained by biopanning a decapeptide library with R4A) [φ1-2],0.7
6,V P V C D W E L N C (VPVCDWELNC; displayed on phage; peptide (1)..(10) randomly-selected sequence obtained by biopanning a decapeptide library with R4A) [φ7-26],0.4
7,W C E A D Y G R C P (WCEADYGRCP; displayed on phage; peptide (1)..(10) randomly-selected sequence obtained by biopanning a decapeptide library with R4A) [φ7-21],1.3
8,Y S D W D Y S E G L (YSDWDYSEGL; displayed on phage; peptide (1)..(10) randomly-selected sequence obtained by biopanning a decapeptide library with R4A) [φ1-10],1.1
